Test results taken from patent US7541351B2, “Compounds for the treatment of hepatitis C” (Bristol-Myers Squibb Company, priority 2007, dated 2009).
pEC50, pIC50: −log10 of the molar value. Where two headings read alike, the source gives them in different places.

How the values were obtained:
[1] = target: T1, HCV NS5B RdRp genotype 1b (Hepatitis C virus genotype 1b, UniProt Q9WMX2); test: Modified HCV NS5B RdRp enzyme assay (preincubation protocol); assay type: biochemical
T1 construct: The protein was expressed with an 18 amino acid C-terminal truncation to enhance the solubility; made in house; host or cells: E. coli BL21 (DE3)
Procedure: HCV NS5B RdRp cloning, expression, and purification. The cDNA encoding the NS5B protein of HCV, genotype 1b, was cloned into the pET21a expression vector. The protein was expressed with an 18 amino acid C-terminal truncation to enhance the solubility. The E. coli competent cell line BL21 (DE3) was used for expression of the protein. Cultures were grown at 37° C. for ˜4 hours until the cultures reached an optical density of 2.0 at 600 nm. The cultures were cooled to 20° C. and induced with 1 mM IPTG. Fresh ampicillin was added to a final concentration of 50 μg/ml and the cells were grown overnight at 20° C.
Cell pellets (3 L) were lysed for purification to yield 15-24 mgs of purified NS5B. The lysis buffer consisted of 20 mM Tris-HCl, pH 7.4, 500 mM NaCl, 0.5% triton X-100, 1 mM DTT, 1 mM EDTA, 20% glycerol, 0.5 mg/ml lysozyme, 10 mM MgCl2, 15 ug/ml deoxyribonuclease I, and Complete TM protease inhibitor tablets (Roche). After addition of the lysis buffer, frozen cell pellets were resuspended using a tissue homogenizer. To reduce the viscosity of the sample, aliquots of the lysate were sonicated on ice using a microtip attached to a Branson sonicator. The sonicated lysate was centrifuged at 100,000×g for 1 hr at 4° C. and filtered through a 0.2 μm filter unit (Corning).
The protein was purified using three sequential chromatography steps: Heparin sepharose CL-6B, polyU sepharose 4B, and Hitrap SP sepharose (Pharmacia). The chromatography buffers were identical to the lysis buffer but contained no lysozyme, deoxyribonuclease I, MgCl2 or protease inhibitor and the NaCl concentration of the buffer was adjusted according to the requirements for charging the protein onto the column. Each column was eluted with a NaCl gradient which varied in length from 5-50 column volumes depending on the column type. After the final chromatography step, the resulting purity of the enzyme is >90% based on SDS-PAGE analysis. The enzyme was aliquoted and stored at −80° C.
Standard HCV NS5B RdRp enzyme assay. HCV RdRp genotype 1b assays were run in a final volume of 60 μl in 96 well plates (Costar 3912). The assay buffer is composed of 20 mM Hepes, pH 7.5, 2.5 mM KCl, 2.5 mM MgCl2, 1 mM DTT, 1.6 U RNAse inhibitor (Promega N2515), 0.1 mg/ml BSA (Promega R3961), and 2% glycerol. All compounds were serially diluted (3-fold) in DMSO and diluted further in water such that the final concentration of DMSO in the assay was 2%. HCV RdRp genotype 1b enzyme was used at a final concentration of 28 nM. A polyA template was used at 6 nM, and a biotinylated oligo-dT 12 primer was used at 180 nM final concentration. Template was obtained commercially (Amersham 27-4110). Biotinylated primer was prepared by Sigma Genosys. 3H-UTP was used at 0.6 μCi (0.29 μM total UTP). Reactions were initiated by the addition of enzyme, incubated at 30° C. for 60 min, and stopped by adding 25 μl of 50 mM EDTA containing SPA beads (4 μg/μl, Amersham RPNQ 0007). Plates were read on a Packard Top Count NXT after >1 hr incubation at room temperature.
Modified HCV NS5B RdRp enzyme assay. A modified enzyme assay was performed essentially as described for the standard enzyme assay except for the following: The biotinylated oligo dT12 primer was precaptured on streptavidin-coated SPA beads by mixing primer and beads in assay buffer and incubating at room temperature for one hour. Unbound primer was removed after centrifugation. The primer-bound beads were resuspended in 20 mM Hepes buffer, pH 7.5 and used in the assay at final concentrations of 20 nM primer and 0.67 μg/μl beads. Order of addition in the assay: enzyme (14 nM) was added to diluted compound followed by the addition of a mixture of template (0.2 nM), 3H-UTP (0.6 μCi, 0.29 μM), and primer-bound beads, to initiate the reaction; concentrations given are final. Reactions were allowed to proceed for 4 hours at 30° C.
IC50 values for compounds were determined using seven different [I]. […]

HCV replicon cells = test: HCV replicon FRET assay; assay type: cell-based
From the text: FRET Assay Preparation. To perform the HCV FRET screening assay, 96-well cell culture plates were used. The FRET peptide (Anaspec, Inc.) (Taliani et al., Anal. Biochem. 1996, 240, 60-67) contains a fluorescence donor, EDANS, near one end of the peptide and an acceptor, DABCYL, near the other end. The fluorescence of the peptide is quenched by […] resonance energy transfer (RET) between the donor and the acceptor, but as the NS3 protease cleaves the peptide the products are released from RET quenching and the fluorescence of the donor becomes apparent. The assay reagent was made as follows: 5× cell Luciferase cell culture lysis reagent from Promega (#E153A) diluted to 1× with dH2O, NaCl added to 150 mM final, the FRET peptide diluted to 20 μM final from a 2 mM stock.
To prepare plates, HCV replicon cells, with or without a Renilla luciferase reporter gene, were trypsinized and placed into each well of a 96-well plate with titrated test compounds added in columns 3 through 12; columns 1 and 2 contained a control compound (HCV protease inhibitor), and the bottom row contained cells without compound. The plates were then placed in a CO2 incubator at 37° C.
Assays. Subsequent to addition of the test compounds described above (FRET Assay Preparation), at various times the plate was removed and Alamar blue solution (Trek Diagnostics, #00-100) was added per well as a measure of cellular toxicity. After reading in a Cytoflour 4000 instrument (PE Biosystems), plates were rinsed with PBS and then used for FRET assay by the addition of 30 ul of the FRET peptide assay reagent described above (FRET Assay Preparation) per well. The plate was then placed into the Cytoflour 4000 instrument which had been set to 340 excite/490 emission, automatic mode for 20 cycles and the plate read in a kinetic mode. Typically, the signal to noise using an endpoint analysis after the reads was at least three-fold. Alternatively, after Alamar blue reading, plates were rinsed with PBS, 50 ul of DMEM (high glucose) without phenol red was added and plates were then used for luciferase assay using the Promega Dual-Glo Luciferase Assay System.
Compound analysis was determined by quantification of the relative HCV replicon inhibition and the relative cytotoxicity values. To calculate cytoxicity values, the average Alamar Blue fluorescence signals from the control wells were set as 100% non-toxic. The individual signals in each of the compound test wells were then divided by the average control signal and multiplied by 100% to determine […]. To calculate the HCV replicon inhibition values, an average background value was obtained from the two wells containing the highest amount of HCV protease inhibitor at the end of the assay period. These numbers were similar to those obtained from naïve Huh-7 cells.
The background numbers were then subtracted from the average signal obtained from the control wells and this number was used as 100% activity. The individual signals in each of the compound test wells were then divided by the averaged control values after background subtraction and multiplied by 100% to determine percent activity. EC50 values for a protease inhibitor titration were calculated as the concentration which caused a 50% reduction in FRET or luciferase activity. The two numbers generated for the compound plate, percent cytoxicity and percent activity were used to determine compounds of interest for further analysis.

T1 sequence (Q9WMX2 2420-2992): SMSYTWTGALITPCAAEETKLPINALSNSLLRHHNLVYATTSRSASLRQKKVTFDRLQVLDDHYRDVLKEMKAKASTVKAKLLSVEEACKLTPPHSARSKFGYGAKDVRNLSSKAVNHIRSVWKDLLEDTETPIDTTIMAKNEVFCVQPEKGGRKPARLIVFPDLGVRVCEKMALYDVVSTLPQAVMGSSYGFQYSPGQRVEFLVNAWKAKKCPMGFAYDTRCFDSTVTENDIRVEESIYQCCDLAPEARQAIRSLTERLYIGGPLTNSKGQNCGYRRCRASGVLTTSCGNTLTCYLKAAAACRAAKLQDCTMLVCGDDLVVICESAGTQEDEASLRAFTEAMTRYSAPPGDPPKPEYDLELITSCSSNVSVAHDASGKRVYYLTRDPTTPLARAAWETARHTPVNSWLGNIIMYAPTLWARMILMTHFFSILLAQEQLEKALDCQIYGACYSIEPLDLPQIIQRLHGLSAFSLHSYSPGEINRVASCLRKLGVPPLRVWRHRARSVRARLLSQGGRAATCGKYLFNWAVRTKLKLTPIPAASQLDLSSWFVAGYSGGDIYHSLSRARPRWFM

| SMILES | pIC50 [1] | pEC50 (HCV replicon cells; Hepatitis C virus) | pEC50 (HCV replicon cells) |
| --- | --- | --- | --- |
| COc1ccc2c(c1)C=C(C(=O)N1CC3CCC(C1)N3)Cn1c-2c(C2CCCCC2)c2ccc(C(=O)NS(=O)(=O)N(C)C)cc21 | 6.30 to 9.00 | 6.30 to 9.00 |  |
| COc1ccc2c(c1)C=C(C(=O)N1C3CCC1CN(C1CC1)C3)Cn1c-2c(C2CCCCC2)c2ccc(C(=O)NS(=O)(=O)N(C)C)cc21 | > 7.70 | 6.30 to 9.00 |  |
| CN1CC2CCC(C1)N2C(=O)C1=Cc2c(OC(C)(F)F)cccc2-c2c(C3CCCCC3)c3ccc(C(=O)NS(=O)(=O)N(C)C)cc3n2C1 | < 6.30 | < 6.30 |  |
| COc1cccc2c1C=C(C(=O)N1CC3CCC(C1)N3C(=O)OC(C)(C)C)Cn1c-2c(C2CCCCC2)c2ccc(C(=O)NS(=O)(=O)N(C)C)cc21 | 6.30 to 9.00 | 6.30 to 9.00 |  |
| COc1ccc2c(c1)C=C(C(=O)N1C3CCC1CN(C)C3)Cn1c-2c(C2CCCCC2)c2ccc(C(=O)NS(=O)(=O)C(C)C)cc21 | 6.30 to 9.00 | 6.30 to 9.00 |  |
| COc1ccc2c(c1)C=C(C(=O)N1C3CCC1CN(C)C3)Cn1c-2c(C2CCCCC2)c2ccc(C(=O)O)cc21 | 6.30 to 9.00 | 6.30 to 9.00 |  |
| COc1ccc2c(c1)C=C(C(=O)N1C3CCC1CN(C)C3)Cn1c-2c(C2CCCCC2)c2ccc(C(=O)NS(=O)(=O)N(C)C)cc21 [drawing 16] | 6.30 to 9.00 |  | 6.30 to 9.00 |
| COc1ccc2c(c1)C=C(C(=O)N1C3CCC1CN(C)C3)Cn1c-2c(C2CCCCC2)c2ccc(C(=O)NS(=O)(=O)N(C)C)cc21 [drawing 25] | 6.30 to 9.00 | 6.30 to 9.00 |  |
| COc1ccc2c(c1)CC(C(=O)N1C3CCC1CN(C)C3)Cn1c-2c(C2CCCCC2)c2ccc(C(=O)NS(=O)(=O)N(C)C)cc21 (stereo not drawn) | 6.30 to 9.00 | 6.30 to 9.00 |  |
| COC(=O)c1ccc2c(C3CCCCC3)c3n(c2c1)CC(C(=O)N1C2CCC1CN(C)C2)=Cc1cc(OC)ccc1-3 | < 6.30 | < 6.30 |  |
| COC(=O)c1ccc2c(C3CCCCC3)c3n(c2c1)CC(C(=O)N1C2CCC1CN(C)C2)=Cc1c(OC(F)(F)F)cccc1-3 | < 6.30 | < 6.30 |  |
| CCC(C)S(=O)(=O)NC(=O)c1ccc2c(C3CCCCC3)c3n(c2c1)CC(C(=O)N1C2CCC1CN(C)C2)=Cc1cc(OC)ccc1-3 (stereo not drawn) | 6.30 to 9.00 | 6.30 to 9.00 |  |
| COc1ccc2c(c1)C=C(C(=O)N1CC3CCC(C1)N3C(=O)OC(C)(C)C)Cn1c-2c(C2CCCCC2)c2ccc(C(=O)NS(=O)(=O)N(C)C)cc21 | 6.30 to 9.00 | 6.30 to 9.00 |  |
| COc1cccc2c1C=C(C(=O)N1C3CCC1CN(C)C3)Cn1c-2c(C2CCCCC2)c2ccc(C(=O)NS(=O)(=O)N(C)C)cc21 | 6.30 to 9.00 | 6.30 to 9.00 |  |
| COc1cccc2c1C=C(C(=O)N1CC3CCC(C1)N3)Cn1c-2c(C2CCCCC2)c2ccc(C(=O)NS(=O)(=O)N(C)C)cc21 | 6.30 to 9.00 | 6.30 to 9.00 |  |
| COc1ccc2c(c1)C=C(C(=O)N1CC3CCC(C1)N3C)Cn1c-2c(C2CCCCC2)c2ccc(C(=O)NS(=O)(=O)N(C)C)cc21 | 6.30 to 9.00 | 6.30 to 9.00 |  |
| COc1cccc2c1C=C(C(=O)N1CC3CCC(C1)N3C)Cn1c-2c(C2CCCCC2)c2ccc(C(=O)NS(=O)(=O)N(C)C)cc21 | 6.30 to 9.00 | 6.30 to 9.00 |  |
| COc1ccc2c(c1)C=C(C(=O)N1C3CCC1CN(C)C3)Cn1c-2c(C2CCCCC2)c2ccc(C(=O)NS(=O)(=O)C3CC3)cc21 | 6.30 to 9.00 | 6.30 to 9.00 |  |
